For data set [1], the system named is nfkbiaa. The data set is described as follows: qPCR nfkbiaa expression in zebrafish larvae. It is filed as in vivo, zebrafish (Danio rerio). Particulars: for nfkbiaa expression, short-term treatment / nfkbiaa expression, long-term treatment: 5 dpf, beclomethasone 10 μM, Rg1 50 μM or combination; for nfkbiaa expression, short-term treatment: 6 h; for nfkbiaa expression, long-term treatment: 5 days; for nfkbiaa expression: Example 2, 6 h treatment. As for the experimental part: […] Groups of 15 larvae were collected in TRIzol reagent (ThermoFisher) and total RNA was isolated using miRNeasy mini kit (Qiagen, Hilden, Germany). For experiments in HeLa cells, cells were seeded in 6 well plates and after treatment, the cells were removed from the wells using TRIzol reagent and mRNA was isolated using miRNeasy mini kit (Qiagen) according to the manufacturer's instructions. The RNA samples were DNAse-treated utilizing the DNA-free™ DNA Removal Kit (ThermoFisher Scientific). The cDNA synthesis was performed using the iScript cDNA synthesis kit (Bio-Rad Laboratories, Hercules, CA, USA) using 1 μg of RNA per sample. For qPCR, 10 μM of forward primer and 10 μM of reverse primer, 12.5 μl of IQ SYBR Green Supermix (Bio-Rad Laboratories), and 2 μl of cDNA were added to the qPCR reaction mixture. […] The qPCR reactions were performed on a MyiQ-single-color real-time PCR detection system (Bio-Rad Laboratories), with initial denaturation for 3 min, 95° C., and 40 cycles of 15 s at 95.5° C., 15 s at 60° C., and 30 s at 72° C. Cycle threshold values (Ct values, i.e. the cycle numbers at which a threshold value of the fluorescence intensity was reached) were determined for each sample. The gene expression level for each sample was normalized using the expression of ppial (peptidylprolyl isomerase Ab (cyclophilin A)) for zebrafish samples, and 18S rRNA for human cells. The fold change per sample (compared to the respective control group) was calculated using the […]Ct method.
[…] Per sample, groups of 15 larvae were collected in TRIzol reagent (Thermo Fisher Scientific, Waltham, MA, USA), and total RNA was isolated using the miRNeasy mini kit (Qiagen, Hilden, Germany). For similar experiments in Hela cells, cells were seeded in 6 well plates, and after 6 h of chemical treatment, the cells were removed from the wells using TRIzol reagent, and total RNA was isolated using the miRNeasy mini kit according to the manufacturer's instructions. The RNA samples were DNAse-treated utilizing the DNA-free™ DNA Removal Kit (Thermo Fisher Scientific). The cDNA synthesis was performed using the iScript cDNA synthesis kit (Bio-Rad Laboratories, Hercules, CA, USA) using 1 μg of RNA per sample. For the PCR reactions, 10 μM of forward and 10 μM of reverse primer, 12.5 μl of iQ SYBR Green Supermix (Bio-Rad), and 2 μl of cDNA were added to the qPCR reaction mixture. […] The reactions were performed on a MyiQ-single-color real-time PCR detection system (Bio-Rad Laboratories) with initial denaturation for 3 min at 95° C. and 40 cycles of 15 s at 95.5° C., 15 s at 60° C., and 30 s at 72° C. Cycle threshold values (Ct values, i.e. the cycle numbers at which a threshold value of the fluorescence intensity was reached) were determined for each sample. The gene expression level for each sample was normalized using the expression of ppial (peptidylprolyl isomerase Ab (cyclophilin A)) for zebrafish samples, 18S rRNA for human cells. The fold change per sample (compared to the respective control group) was calculated using the ΔΔCt method.

Data set [2] relates to mmp13. The data set is described as follows: qPCR mmp13 expression in zebrafish larvae. Particulars: Example 2, wounded larvae. Type of data set: in vivo, zebrafish (Danio rerio). As for the experimental part:
(§1) To determine mRNA levels of specific genes in zebrafish, 3 dpf larvae were used (wounded and non-wounded) and after 6 h of chemical treatments (2 h pre-wounding, 4 h post-wounding), as indicated. Per sample, groups of 15 larvae were collected in TRIzol reagent (Thermo Fisher Scientific, Waltham, MA, USA), and total RNA was isolated using the miRNeasy mini kit (Qiagen, Hilden, Germany). For similar experiments in Hela cells, cells were seeded in 6 well plates, and after 6 h of chemical treatment, the cells were removed from the wells using TRIzol reagent, and total RNA was isolated using the miRNeasy mini kit according to the manufacturer's instructions. The RNA samples were DNAse-treated utilizing the DNA-free™ DNA Removal Kit (Thermo Fisher Scientific). The cDNA synthesis was performed using the iScript cDNA synthesis kit (Bio-Rad Laboratories, Hercules, CA, USA) using 1 μg of RNA per sample. For the PCR reactions, 10 μM of forward and 10 μM of reverse primer, 12.5 μl of iQ SYBR Green Supermix (Bio-Rad), and 2 μl of cDNA were added to the qPCR reaction mixture. […] The reactions were performed on a MyiQ-single-color real-time PCR detection system (Bio-Rad Laboratories) with initial denaturation for 3 min at 95° C. and 40 cycles of 15 s at 95.5° C., 15 s at 60° C., and 30 s at 72° C. Cycle threshold values (Ct values, i.e. the cycle numbers at which a threshold value of the fluorescence intensity was reached) were determined for each sample. The gene expression level for each sample was normalized using the expression of ppial (peptidylprolyl isomerase Ab (cyclophilin A)) for zebrafish samples, 18S rRNA for human cells. The fold change per sample (compared to the respective control group) was calculated using the ΔΔCt method.
A general note: Quantitative PCR measures a nucleic acid by following its amplification.

For data set [3], the system named is zebrafish larvae. The data set is described as follows: whole-body cortisol measurement of zebrafish larvae (ELISA). Particulars: for whole body cortisol level: 0-4 dpf, 10 μM beclomethasone, 50 μM Rg1 or combination; for whole-body cortisol level: Example 2, non-wounded; for whole-body cortisol level / whole-body cortisol level upon wounding: 5 dpf; for whole-body cortisol level upon wounding: Example 2, wounded at 2 dpf. In general terms: An ELISA detects its analyte on a solid surface through an enzyme-linked reagent.
Experimental: Ethyl acetate was added to the homogenate. The homogenates were then centrifuged at 4° C. for 8 min at 11,000 rpm and the supernatant was collected and vaporized. A volume of 150 μl of 0.2% Bovine serum albumin (Sigma-Aldrich) dissolved in PBS was added to the samples and frozen. Whole-body cortisol levels of the zebrafish larvae were determined by ELISA (Demeditec Diagnostics GmbH, Kiel-Wellsee, Germany), following the manufacturer's instructions. In each experiment, three biological replicates were used for each treatment group, and the ELISA was performed using technical duplicates.
Tail fin wounding were performed at 2 days post-fertilization (dpf). At 96hpf, the treatments were stopped, and larvae were incubated in egg water until 5 dpf to avoid cross-reactivity between the compounds and the cortisol antibody used in the ELISA. At dpf, the larvae were collected in an Eppendorf tube (30 larvae per sample), and 100 μl of ice-cold egg water was added. After the excess water had been taken out, the samples were glaciated in ethanol (EtOH)/dry-ice bath. Subsequently, the larvae were homogenized using a BulletBlender® for 3 min at 8,000 rpm. Ethyl acetate was added to the homogenate. The homogenates were then centrifuged at 4° C. for 8 min at 11,000 rpm, and the supernatant was collected and vaporized. A volume of 150 μl of 0.2% bovine serum albumin (Sigma-Aldrich) dissolved in PBS was added to the samples and frozen. Whole-body cortisol levels of the zebrafish larvae were determined using a Cortisol free in Saliva ELISA kit (Demeditec Diagnostics GmbH, Kiel-Wellsee, Germany), following the manufacturer's instructions. In each experiment, three biological replicates were used for each treatment group, and the ELISA was performed using technical duplicates.

Data set [4] relates to zebrafish larvae. Put plainly: larval body length. Particulars: for larval length at 5 dpf: 0-5 dpf, 10 μM beclomethasone, 50 μM Rg1 or combination; for larval length: Example 2, 5 dpf.
Experimental: In experiments in which the length of regenerated tail fin tissue after wounding, or the larval body length, was used as a readout, chemical treatments were started at 2 hours post-fertilization (hpf) and continued until 5 dpf, as indicated (15 larvae per treatment group). During this period, solutions were refreshed daily. For the regeneration experiments, tail fins were amputated at 2 dpf. At 5 dpf, larvae were fixed overnight in 4% PFA at 4° C. For determination of the larval length and the regeneration of the tail fins, larvae were imaged using a LeicaMZ16FA fluorescence stereomicroscope supported by LAS 3.7 software. The length of the entire larva or the newly grown tissue was measured using ImageJ software. The newly grown tissue can be visually distinguished from the old tissue, enabling precise measurement of its length.
Data set [5] concerns il8. The data set is described as follows: qPCR il8 expression in zebrafish larvae. Particulars: Example 2, wounded larvae. Type of data set: in vivo, zebrafish (Danio rerio). The protocol: as §1

For the molecule `CC(C)=CCC[C@](C)(O[C@@H]1O[C@H](CO)[C@@H](O)[C@H](O)[C@H]1O)[C@H]1CC[C@]2(C)[C@@H]1[C@H](O)C[C@@H]1[C@@]3(C)CC[C@H](O)C(C)(C)[C@@H]3[C@@H](O[C@@H]3O[C@H](CO)[C@@H](O)[C@H](O)[C@H]3O)C[C@]12C` [Rg1, (3β,6α, 12β)-3,12-Dihydroxydammar-24-ene-6,20-diyl bis-β-D-glucopyranoside], in data set [1], the “nfkbiaa expression, short-term treatment” value is recorded as “did not affect the expression of the genes”; the “nfkbiaa expression, long-term treatment” value is reported as “did not affect the expression of the genes”; the nfkbiaa expression entry is listed as “did not increase the expression”. For the same molecule, the mmp13 expression result in data set [2] is reported as “no effect”. In addition, in data set [3], the “whole body cortisol level” value is “did not affect the whole-body glucose and cortisol concentrations”; the whole-body cortisol level entry is “did not show any side effects”; the “whole-body cortisol level upon wounding” value was “still not show any effect on the glucose or cortisol level or on tissue regeneration”. Further, in data set [4], the “larval length at 5 dpf” value is on record as “did not affect the larval length” and the larval length result was “did not show any side effects”. Also, the il8 expression result in data set [5] is “no effect”.
With `C[C@H]1C[C@H]2[C@@H]3CCC4=CC(=O)C=C[C@]4(C)[C@@]3(Cl)[C@@H](O)C[C@]2(C)[C@@]1(O)C(=O)CO` [beclomethasone, reference compound], in data set [1], the “nfkbiaa expression, short-term treatment” value is given as “upregulated the expression”; the “nfkbiaa expression, long-term treatment” value is “this upregulation of pck1 and nfkbiaa was significantly reduced after long-term treatment”. Also, in data set [3], the “whole body cortisol level” value was “reduced whole body cortisol levels” and the whole-body cortisol level result is recorded as “decrease in cortisol level”. Further, the “dose-response of whole-body cortisol level” value in data set [3] (beclomethasone 0.1, 1, 5, 10, 15 μM without or with 50 μM Rg1) is listed as “dose-dependent effect”. Moreover, in data set [4], the “larval length at 5 dpf” value is “significantly decreased” and the larval length entry is “decrease in larval length”.
Regarding `CC(C)=CCC[C@](C)(O)[C@H]1CC[C@]2(C)[C@@H]1[C@H](O)C[C@@H]1[C@@]3(C)CC[C@H](O)C(C)(C)[C@@H]3[C@@H](O[C@@H]3O[C@H](CO)[C@@H](O)[C@H](O)[C@H]3O)C[C@]12C` [Rh1], in data set [1], the nfkbiaa expression entry is “did not increase the expression”. For the same molecule, the mmp13 expression result in data set [2] is reported as “no effect”. In addition, in data set [3], the whole-body cortisol level result is “did not show any side effects” and the “whole-body cortisol level upon wounding” value was “still not show any effect on the glucose or cortisol level or on tissue regeneration”. Besides, in data set [4], the larval length result is reported as “did not show any side effects”. The il8 expression entry in data set [5] was “no effect”.
Turning to `CC(C)=CCC[C@](C)(O[C@@H]1O[C@H](CO)[C@@H](O)[C@H](O)[C@H]1O)[C@H]1CC[C@]2(C)[C@@H]1[C@H](O)C[C@@H]1[C@@]3(C)CC[C@H](O)C(C)(C)[C@@H]3[C@@H](O)C[C@]12C` [F1], the nfkbiaa expression result in data set [1] is on record as “did not increase the expression”. Also, the mmp13 expression result in data set [2] is given as “Only a minor effect”. In data set [3], the whole-body cortisol level result is reported as “did not show any side effects”; the “whole-body cortisol level upon wounding” value was “minor effect on the cortisol level and on tissue regeneration”. Besides, the “cortisol effect upon wounding in presence of Gba2 inhibitor MZ31” value in data set [3] (Example 2, wounded, with MZ31) is reported as “These latter effects were Gba2-dependent”. Besides, the larval length result in data set [4] is “did not show any side effects”. In addition, in data set [5], the il8 expression entry is “Only a minor effect”.
For the molecule `CC(C)=CCC[C@](C)(O)[C@H]1CC[C@]2(C)[C@@H]1[C@H](O)C[C@@H]1[C@@]3(C)CC[C@H](O)C(C)(C)[C@@H]3[C@@H](O)C[C@]12C` [PPT, Protopanaxatriol], the nfkbiaa expression entry in data set [1] is “did not increase the expression”. In data set [2], the mmp13 expression entry is recorded as “Only a minor effect”. For the same molecule, the whole-body cortisol level result in data set [3] was “did decrease the cortisol concentration”. The larval length entry in data set [4] is listed as “minor effect on larval length”. In addition, in data set [5], the il8 expression result is “Only a minor effect”.

The values are drawn from patent US20260306525A1, “COMBINATION THERAPY GLUCOCORTICOIDS AND GINSENOSIDE” (FYTAGORAS B.V., priority 2023, published 2026).
